Experimental data taken from US10052320B2, “Substituted quinoxalines as FGFR kinase inhibitors” (ASTEX THERAPEUTICS LIMITED, priority 2011, dated 2018).
Like-named read-outs stand apart in the source and are kept apart here.

Assays:
[1] = target: T1, Ba/F3-Flt3-transfected cells (Homo sapiens, UniProt P36888, cells depend on it, form not given); test: Ba/F3-Flt3 (minus IL3) cellular proliferation assay, Alamar Blue; format: cell-based; settings: minus IL3
T1 sequence (P36888 1-993): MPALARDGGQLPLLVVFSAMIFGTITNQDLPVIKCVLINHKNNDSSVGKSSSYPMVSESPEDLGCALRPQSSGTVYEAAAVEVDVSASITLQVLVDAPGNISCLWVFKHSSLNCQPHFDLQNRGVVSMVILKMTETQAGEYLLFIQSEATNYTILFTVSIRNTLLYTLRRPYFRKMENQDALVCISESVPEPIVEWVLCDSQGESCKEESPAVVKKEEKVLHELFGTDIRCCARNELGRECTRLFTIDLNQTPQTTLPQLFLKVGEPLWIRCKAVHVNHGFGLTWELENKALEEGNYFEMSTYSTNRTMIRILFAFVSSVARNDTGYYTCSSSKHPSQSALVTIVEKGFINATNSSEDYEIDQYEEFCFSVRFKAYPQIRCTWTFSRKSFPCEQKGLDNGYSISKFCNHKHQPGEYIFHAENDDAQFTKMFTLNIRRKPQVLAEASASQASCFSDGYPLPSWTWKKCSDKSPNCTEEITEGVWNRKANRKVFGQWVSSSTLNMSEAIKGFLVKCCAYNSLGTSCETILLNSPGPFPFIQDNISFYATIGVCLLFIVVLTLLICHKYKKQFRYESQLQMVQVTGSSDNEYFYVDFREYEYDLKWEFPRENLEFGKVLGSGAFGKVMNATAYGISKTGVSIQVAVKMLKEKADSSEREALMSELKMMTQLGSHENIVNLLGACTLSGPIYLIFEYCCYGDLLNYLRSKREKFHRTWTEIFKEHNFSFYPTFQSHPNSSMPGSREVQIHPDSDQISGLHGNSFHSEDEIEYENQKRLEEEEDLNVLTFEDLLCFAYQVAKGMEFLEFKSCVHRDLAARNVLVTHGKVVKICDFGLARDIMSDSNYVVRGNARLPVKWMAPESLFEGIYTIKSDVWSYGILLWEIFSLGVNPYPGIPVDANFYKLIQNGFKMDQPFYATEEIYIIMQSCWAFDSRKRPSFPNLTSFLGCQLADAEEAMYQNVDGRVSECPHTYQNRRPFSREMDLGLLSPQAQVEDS

[2] = test system: Ba/F3-FGFR1-transfected cells in the presence of 10 ng/ml murine IL3; test: Ba/F3-FGFR1 (plus IL3) cellular proliferation counterscreen, Alamar Blue; format: cell-based; settings: Mus musculus
How it was run: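 Ba/F3 cells transfected with FGFR1 were incubated with compound in RPMI-1640/10% FBS for 24 h at 37 °C, 5% CO2. Alamar Blue (resazurin) was then added for 4 h and fluorescence was read at ex 540/em 590 nm. The counterscreen used the same conditions plus 10 ng/ml murine IL3.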

[3] = plus IL3, 96 well, read-out: BAF3-FGFR 1 (PLUS IL3) 96 well pIC50 (converted)
[4] = plus IL3, 384 well, read-out: BAF3-FGFR 1 (PLUS IL3) 384 well pIC50 (converted)

Row | Structure (SMILES) | BAF3-FLT3 (MIN IL3) 96 well pIC50 [1] | BAF3-FLT3 (MIN IL3) 384 well pIC50 [1] | IC50 [2, 3] [µM] | IC50 [2, 4] [µM]
1 | COc1cc(OC)cc(N(CC2CC2)c2ccc3ncc(C(=O)NCc4ccc(F)cc4)nc3c2)c1 [Compound 101] | <5 | <5 |  | 
2 | COc1cc(OC)cc(N(CC2CC2)c2ccc3ncc(-c4cccn4C)nc3c2)c1 [Compound 103] | 5.17 | <5 |  | 
3 | COc1cc(OC)cc(N(CC2CC2)c2ccc3ncc(-n4cncn4)nc3c2)c1 [Compound 50] | <5 | <5 | > 10 | > 10
4 | COc1cc(OC)cc(N(CC2CC2)c2ccc3ncc(-c4nccn4C)nc3c2)c1 [Compound 60] | <5 | <5 | > 10 | > 10
5 | COc1cc(OC)cc(N(CCO)c2ccc3ncc(-c4cccnc4)nc3c2)c1 [Compound 9] |  | <5 |  | > 10
6 | COc1cc(OC)cc(N(CC2CC2)c2ccc3ncc(-n4ccc(C)n4)nc3c2)c1 [Compound 31] | <5 | <5 | > 10 | > 10
7 | COc1cc(OC)cc(N(CC2CC2)c2ccc3ncc(Nc4nncs4)nc3c2)c1 [Compound 102] | ~5 | <5 |  | 
8 | COc1cc(OC)cc(N(CCNC(C)C)c2ccc3ncc(-c4cccnc4)nc3c2)c1 [Compound 10] |  | ~5.01 |  | > 10
9 | COc1cc(OC)cc(N(CC2CC2)c2ccc3ncc(-c4cn(CCN5CCOCC5)nn4)nc3c2)c1 [Compound 24] | <5 | <5 | > 10 | > 10
10 | CNCCN(c1cc(OC)cc(OC)c1)c1ccc2ncc(-c3ccc(NC(=O)OC(C)(C)C)nc3)nc2c1 [Compound 81] |  | 5.76 |  | 
11 | CNC(=O)c1cc(-c2cnc3ccc(N(CCCNCC(F)(F)F)c4cc(OC)cc(OC)c4)cc3n2)ccn1 [Compound 122] |  | <5 |  | > 10
12 | COc1cc(OC)cc(N(CCCO)c2ccc3ncc(-c4ccnc(C(=O)NCCCN)c4)nc3c2)c1 [Compound 33] |  | <5 |  | > 10
13 | COc1cc(OC)cc(N(CCO)c2ccc3ncc(-c4ccc(N)nc4)nc3c2)c1 [Compound 106] |  | <5.025 |  | 
14 | COc1cc(OC)cc(N(CCCNCC(F)(F)F)c2ccc3ncc(-c4ccc(N(C)C(=O)OC(C)(C)C)nc4)nc3c2)c1 [Compound 127] |  | <5 |  | > 10
15 | COc1cc(OC)cc(N(CC2CC2)c2ccc3ncc(-c4cn(C)cn4)nc3c2)c1 [Compound 21] | <5 | <5 | > 10 | > 10
16 | COCCN(c1cc(OC)cc(OC)c1)c1ccc2ncc(-c3ccn(C)c3)nc2c1 [Compound 6] |  | <5 |  | > 10
17 | COc1cc(OC)cc(N(Cc2cccc(CN)n2)c2ccc3ncc(-c4ccc(N)nc4)nc3c2)c1 [Compound 51] |  | 5.27 |  | > 10
18 | COc1cc(OC)cc(N(CC2CC2)c2ccc3ncc(-c4cc[nH]c4)nc3c2)c1 [Compound 36] | <5 | <5 | > 10 | > 10

Row | Structure (SMILES) | BAF3-FLT3 (MIN IL3) 96 well pIC50 [1] | BAF3-FLT3 (MIN IL3) 384 well pIC50 [1] | IC50 [2, 3] [µM] | IC50 [2, 4] [µM]
19 | COc1cc(OC)cc(N(CC2CC2)c2ccc3ncc(Nc4cnn(C)c4)nc3c2)c1 [Compound 61] | 5.25 | <5 | 6.92 | > 10
20 | CNC(=O)c1cc(-c2cnc3ccc(N(CCN4CCCC4=O)c4cc(OC)cc(OC)c4)cc3n2)ccn1 [Compound 25] |  | <5 |  | > 10
21 | COc1cc(OC)cc(N(CC2CC2)c2ccc3ncc(C(=O)NCCN4CCOCC4)nc3c2)c1 [Compound 96] | <5 | <5 |  | 
22 | COc1cc(OC)cc(N(CCCO)c2ccc3ncc(-c4ccnc(NC(=O)OC(C)(C)C)c4)nc3c2)c1 [Compound 128] |  | <5 |  | > 10
23 | COc1cc(OC)cc(N(CC2CC2)c2ccc3ncc(-c4cn(CCO)nn4)nc3c2)c1 [Compound 40] | <5 | <5 | > 10 | > 10
24 | COc1cc(OC)cc(N(CCCO)c2ccc3ncc(-c4ccc(F)nc4)nc3c2)c1 [Compound 117] |  |  |  | > 10
25 | CNC(=O)c1cc(-c2cnc3ccc(N(CCNCC(F)(F)F)c4cc(OC)cc(OC)c4)cc3n2)ccn1 [Compound 113] |  | <5 |  | 
26 | COc1cc(OC)cc(N(CCNC(C)C)c2ccc3ncc(-c4ccccc4)nc3c2)c1 [Compound 121] |  | ~5.34 |  | 
27 | CNC(=O)c1cc(-c2cnc3ccc(N(CCN4CCCC4CO)c4cc(OC)cc(OC)c4)cc3n2)ccn1 (stereo not drawn) [Compound 109] |  | <5 |  | 
28 | COc1cc(OC)cc(N(CC2CC2)c2ccc3ncc(-c4nnn(C)n4)nc3c2)c1 [Compound 82] | <5 | <5 |  | 
29 | COc1cc(OC)cc(N(CC2CC2)c2ccc3ncc(-n4cnc(CO)c4)nc3c2)c1 [Compound 105] |  | <5 |  | 
30 | COc1cc(OC)cc(N(CCCO)c2ccc3ncc(-c4cccnc4)nc3c2)c1 [Compound 112] |  |  |  | > 10
31 | COc1cc(OC)cc(N(CC2CC2)c2ccc3ncc(Nc4nccs4)nc3c2)c1 [Compound 98] | <5 | <5 |  | 
32 | COc1cc(OC)cc(N(CCCO)c2ccc3ncc(-c4ccnc(C(=O)NCCCCN)c4)nc3c2)c1 [Compound 126] |  | <5 |  | 
33 | COc1cc(OC)cc(N(CCCO)c2ccc3ncc(-c4ccnc(N)c4)nc3c2)c1 [Compound 66] |  |  |  | > 10
34 | COc1cc(OC)cc(N(CCCO)c2ccc3ncc(-c4ccc(N(C)C(=O)OC(C)(C)C)nc4)nc3c2)c1 [Compound 125] |  | <5 |  | 
35 | COc1cc(OC)cc(N(CC2CC2)c2ccc3ncc(-c4nccs4)nc3c2)c1 [Compound 97] | <5 | <5 |  | 
